Values of other authors in patent US8778869B2, “Tissue regeneration system” (Wisconsin Alumni Research Foundation, priority 2010, dated 2014).

Molecule	concentration of optimal in vitro biological activity
fibroblast growth factor-2 [FGF-2]	approximately 1 nM
bone morphogenetic protein-2 (protein, listed as Homo sapiens) MVAGTRCLLALLLPQVLLGGAAGLVPELGRRKFAAASSGRPSSQPSDEVLSEFELRLLSMFGLKQRPTPSRDAVVPPYMLDLYRRHSGQPGSPAPDHRLERAASRANTVRSFHHEESLEELPETSGKTTRRFFFNLSSIPTEEFITSAELQVFREQMQDALGNNSSFHHRINIYEIIKPATANSKFPVTRLLDTRLVNQNASRWESFDVTPAVMRWTAQGHANHGFVVEVAHLEEKQGVSKRHVRISRSLHQDEHSWSQIRPLLVTFGHDGKGHPLHKREKRQAKHKQRKRLKSSCKRHPLYVDFSDVGWNDWIVAPPGYHAFYCHGECPFPLADHLNSTNHAIVQTLVNSVNSKIPKACCVPTELSAISMLYLDENEKVVLKNYQDMVVEGCGCR	approximately 1 nM
